Results reported in patent publication US9266892B2, “Fused pyrazoles as FGFR inhibitors” (Incyte Corporation, priority 2012, dated 2016).

How the values were obtained:
Format in all cases: biochemical
[1] = target: T1, FGFR1 (Homo sapiens, UniProt P11362); assay: FGFR Enzymatic Assay (FRET peptide phosphorylation), FGFR1; conditions: FGFR1 0.02 nM, ATP 210 μM
T1 construct: purchased Millipore or Invitrogen
Protocol: (§1) The inhibitor potency of the Example compounds was measured in an enzyme assay that measures peptide phosphorylation using FRET measurements to detect product formation. Inhibitors were serially diluted in DMSO and a volume of 0.5 μL was transferred to the wells of a 384-well plate. For FGFR3, a 10 μL volume of FGFR3 enzyme (Millipore) diluted in assay buffer (50 mM HEPES, 10 mM MgCl2, 1 mM EGTA, 0.01% Tween-20, 5 mM DTT, pH 7.5) was added to the plate and pre-incubated for 5-10 minutes. Appropriate controls (enzyme blank and enzyme with no inhibitor) were included on the plate. The assay was initiated by the addition of a 10 μL solution containing biotinylated EQEDEPEGDYFEWLE peptide substrate (SEQ ID NO: 1) and ATP (final concentrations of 500 nM and 140 μM respectively) in assay buffer to the wells. The plate was incubated at 25° C. for 1 hr. The reactions were ended with the addition of 10 μL/well of quench solution (50 mM Tris, 150 mM NaCl, 0.5 mg/mL BSA, pH˜7.8, 30 mM EDTA with Perkin Elmer Lance Detection Reagents at 3.75 nM Eu-antibody PY20 and 180 nM APC-Streptavidin). The plate was allowed to equilibrate for 1 hour before scanning the wells on a PheraStar plate reader (BMG Labtech). The enzymes were purchased from Millipore or Invitrogen.
(§2) FGFR1 and FGFR2 were measured under equivalent conditions with the following changes in enzyme and ATP concentrations: FGFR1, 0.02 nM and 210 μM, respectively and FGFR2, 0.01 nM and 100 μM, respectively.
(§3) GraphPad prism3 was used to analyze the data. The IC50 values were derived by fitting the data to the equation for a sigmoidal dose-response with a variable slope. Y=Bottom+(Top−Bottom)/(1+10^((Log IC50−X)*HillSlope)) where X is the logarithm of concentration and Y is the response.

[2] = target: T2, FGFR2 (Homo sapiens, UniProt P21802); assay: FGFR Enzymatic Assay (FRET peptide phosphorylation), FGFR2; conditions: FGFR2 0.01 nM, ATP 100 μM
T2 construct: purchased Millipore or Invitrogen
Protocol: as §1, §2, §3

[3] = target: T3, FGFR3 (Homo sapiens, UniProt P22607); assay: FGFR Enzymatic Assay (FRET peptide phosphorylation), FGFR3; conditions: ATP 140 μM, 25° C. for 1 hr
T3 construct: purchased Millipore
Protocol: as §1, §3

Measured: IC50

T2 sequence (P21802 22-821): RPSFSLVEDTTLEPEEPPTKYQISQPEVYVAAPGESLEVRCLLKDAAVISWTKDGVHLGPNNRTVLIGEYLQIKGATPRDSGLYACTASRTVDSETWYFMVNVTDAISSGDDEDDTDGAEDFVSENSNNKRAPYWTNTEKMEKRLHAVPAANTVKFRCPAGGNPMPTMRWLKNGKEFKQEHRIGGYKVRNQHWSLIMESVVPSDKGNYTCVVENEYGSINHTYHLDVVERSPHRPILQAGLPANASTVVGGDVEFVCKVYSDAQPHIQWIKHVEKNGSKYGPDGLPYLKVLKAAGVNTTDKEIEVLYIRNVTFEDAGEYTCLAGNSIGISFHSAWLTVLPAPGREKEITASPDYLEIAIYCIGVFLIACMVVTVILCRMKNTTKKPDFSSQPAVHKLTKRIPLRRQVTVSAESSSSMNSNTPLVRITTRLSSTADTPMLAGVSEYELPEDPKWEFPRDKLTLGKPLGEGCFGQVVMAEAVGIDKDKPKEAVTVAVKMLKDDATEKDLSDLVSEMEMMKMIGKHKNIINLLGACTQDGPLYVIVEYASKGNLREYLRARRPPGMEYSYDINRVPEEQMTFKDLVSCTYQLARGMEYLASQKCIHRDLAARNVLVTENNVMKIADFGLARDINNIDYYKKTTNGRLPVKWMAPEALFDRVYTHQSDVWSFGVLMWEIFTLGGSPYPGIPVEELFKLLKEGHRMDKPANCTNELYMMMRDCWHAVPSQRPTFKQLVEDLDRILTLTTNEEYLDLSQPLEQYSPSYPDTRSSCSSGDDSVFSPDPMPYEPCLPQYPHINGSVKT
T1 sequence (P11362 22-822): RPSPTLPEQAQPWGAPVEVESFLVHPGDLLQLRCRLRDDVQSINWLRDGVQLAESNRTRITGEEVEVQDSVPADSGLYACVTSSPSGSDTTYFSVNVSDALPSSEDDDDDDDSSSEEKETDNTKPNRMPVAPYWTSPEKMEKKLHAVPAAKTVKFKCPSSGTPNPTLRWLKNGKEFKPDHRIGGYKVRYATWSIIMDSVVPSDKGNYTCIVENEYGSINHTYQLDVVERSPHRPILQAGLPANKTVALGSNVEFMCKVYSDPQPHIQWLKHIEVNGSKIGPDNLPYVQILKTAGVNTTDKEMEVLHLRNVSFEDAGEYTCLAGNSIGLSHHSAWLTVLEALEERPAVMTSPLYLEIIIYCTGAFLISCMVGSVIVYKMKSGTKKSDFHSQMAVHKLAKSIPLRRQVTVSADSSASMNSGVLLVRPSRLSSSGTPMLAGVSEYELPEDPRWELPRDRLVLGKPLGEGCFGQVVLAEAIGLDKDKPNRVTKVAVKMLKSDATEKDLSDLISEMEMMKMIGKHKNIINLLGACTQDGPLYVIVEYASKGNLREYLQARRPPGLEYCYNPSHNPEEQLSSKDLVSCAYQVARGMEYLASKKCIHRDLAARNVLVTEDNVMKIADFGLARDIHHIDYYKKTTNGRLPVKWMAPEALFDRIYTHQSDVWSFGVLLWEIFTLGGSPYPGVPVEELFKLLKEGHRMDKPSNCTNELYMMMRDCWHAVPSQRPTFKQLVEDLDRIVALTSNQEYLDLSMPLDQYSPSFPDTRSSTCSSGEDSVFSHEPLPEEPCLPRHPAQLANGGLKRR
T3 sequence (P22607 23-806): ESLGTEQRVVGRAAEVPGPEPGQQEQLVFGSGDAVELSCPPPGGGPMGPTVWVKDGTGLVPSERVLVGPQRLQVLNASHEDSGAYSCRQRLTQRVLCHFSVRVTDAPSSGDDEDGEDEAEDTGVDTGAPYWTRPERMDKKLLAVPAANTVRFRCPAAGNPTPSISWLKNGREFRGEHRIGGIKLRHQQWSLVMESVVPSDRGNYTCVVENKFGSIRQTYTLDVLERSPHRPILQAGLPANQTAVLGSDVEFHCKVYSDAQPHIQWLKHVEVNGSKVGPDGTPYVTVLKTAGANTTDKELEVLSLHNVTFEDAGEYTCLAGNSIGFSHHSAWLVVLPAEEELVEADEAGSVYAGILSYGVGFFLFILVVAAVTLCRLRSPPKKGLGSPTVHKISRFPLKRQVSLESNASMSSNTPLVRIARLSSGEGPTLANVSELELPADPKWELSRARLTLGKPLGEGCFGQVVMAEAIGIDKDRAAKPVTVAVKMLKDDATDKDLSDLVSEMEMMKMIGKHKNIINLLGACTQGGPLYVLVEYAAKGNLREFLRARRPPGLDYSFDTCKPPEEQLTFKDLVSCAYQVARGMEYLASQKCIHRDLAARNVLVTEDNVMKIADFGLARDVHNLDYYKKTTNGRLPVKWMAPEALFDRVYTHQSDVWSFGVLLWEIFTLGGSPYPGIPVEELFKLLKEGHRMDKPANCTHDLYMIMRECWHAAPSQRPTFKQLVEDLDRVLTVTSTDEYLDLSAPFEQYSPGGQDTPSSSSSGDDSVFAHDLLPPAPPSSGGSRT

COc1cc(OC)c(Cl)c(-c2cc3[nH]nc(-c4cnn(CC(=O)N(C)C)c4)c3cn2)c1Cl [Example 37, 2-{4-[6-(2,6-Dichloro-3,5-dimethoxyphenyl)-1H-pyrazolo[4,3-c]pyridin-3-yl]-1H-pyrazol-1-yl}-N,N-dimethylacetamide]
< 0.1 µM: all assays above

COc1ccc(C#Cc2n[nH]c3nc(-c4c(F)c(OC)cc(OC)c4F)ncc23)cc1 [Example 14, 6-(2,6-Difluoro-3,5-dimethoxyphenyl)-3-[(4-methoxyphenyl)ethynyl]-1H-pyrazolo[3,4-d]pyrimidine]
< 0.1 µM: all assays above

COc1cc(OC)c(F)c(-c2cc3[nH]nc(-c4ccc5c(c4)CC(C(=O)N(C)C)O5)c3cn2)c1F (single isomer, unassigned) [Example 83, 5-[6-(2,6-Difluoro-3,5-dimethoxyphenyl)-1H-pyrazolo[4,3-c]pyridin-3-yl]-N,N-dimethyl-2,3-dihydro-1-benzofuran-2-carboxamide]
< 0.1 µM: all assays above

COc1cc(OC)c(Cl)c(-c2ncc3c(-c4ccc5c(c4)CC(C(=O)N(C)C)O5)n[nH]c3n2)c1Cl (stereo not drawn) [Example 1, 5-[6-(2,6-Dichloro-3,5-dimethoxyphenyl)-1H-pyrazolo[3,4-d]pyrimidin-3-yl]-N,N-dimethyl-2,3-dihydro-1-benzofuran-2-carboxamide]
< 0.1 µM: all assays above

COc1cc(OC)c(Cl)c(-c2cc3[nH]nc(-c4ccc(C(O)C(=O)N(C)C)c(F)c4)c3cn2)c1Cl (stereo not drawn) [Example 34, 2-{4-[6-(2,6-Dichloro-3,5-dimethoxyphenyl)-1H-pyrazolo[4,3-c]pyridin-3-yl]-2-fluorophenyl}-2-hydroxy-N,N-dimethylacetamide]
< 0.1 µM: all assays above

COc1cc(OC)c(F)c(-c2cc3[nH]nc(-c4ccc5c(c4)CN(C4CC4)C5=O)c3cn2)c1F [Example 54, 2-Cyclopropyl-5-[6-(2,6-difluoro-3,5-dimethoxyphenyl)-1H-pyrazolo[4,3-c]pyridin-3-yl]isoindolin-1-one]
< 0.1 µM: all assays above

COc1cc(OC)c(Cl)c(-c2cc3[nH]nc(-c4ccc5c(c4)NC(=O)CO5)c3cn2)c1Cl [Example 30, 6-[6-(2,6-Dichloro-3,5-dimethoxyphenyl)-1H-pyrazolo[4,3-c]pyridin-3-yl]-2H-1,4-benzoxazin-3(4H)-one]
< 0.1 µM: all assays above

COc1cc(OC)c(Cl)c(-c2cc3[nH]nc(-c4cnn(CC(=O)N5CC[C@H](F)C5)c4)c3cn2)c1Cl [Example 48, 6-(2,6-Dichloro-3,5-dimethoxyphenyl)-3-(1-{2-[(3S)-3-fluoropyrrolidin-1-yl]-2-oxoethyl}-1H-pyrazol-4-yl)-1H-pyrazolo[4,3-c]pyridine]
< 0.1 µM: all assays above

COc1cc(OC)c(Cl)c(-c2cc3[nH]nc(-c4cnn(CC(=O)N5CCN(C)CC5)c4)c3cn2)c1Cl [Example 41, 6-(2,6-Dichloro-3,5-dimethoxyphenyl)-3-{1-[2-(4-methylpiperazin-1-yl)-2-oxoethyl]-1H-pyrazol-4-yl}-1H-pyrazolo[4,3-c]pyridine]
< 0.1 µM: all assays above

COc1cc(OC)c(F)c(-c2cc3[nH]nc(-c4cc5c(cc4F)C(=O)N(C(C)C)C5)c3cn2)c1F [Example 65, 5-[6-(2,6-Difluoro-3,5-dimethoxyphenyl)-1H-pyrazolo[4,3-c]pyridin-3-yl]-6-fluoro-2-isopropylisoindolin-1-one]
< 0.1 µM: all assays above

COc1cc(OC)c(Cl)c(-c2cc3[nH]nc(-c4cnn(CC(=O)N5CCC(O)C5)c4)c3cn2)c1Cl (stereo not drawn) [Example 43, 1-({4-[6-(2,6-Dichloro-3,5-dimethoxyphenyl)-1H-pyrazolo[4,3-c]pyridin-3-yl]-1H-pyrazol-1-yl}acetyl)pyrrolidin-3-ol]
< 0.1 µM: all assays above

COc1cc(OC)c(Cl)c(-c2cc3[nH]nc(-c4ccc5c(c4)CN(C4CC4)C5=O)c3cn2)c1Cl [Example 28, 2-Cyclopropyl-5-[6-(2,6-dichloro-3,5-dimethoxyphenyl)-1H-pyrazolo[4,3-c]pyridin-3-yl]isoindolin-1-one]
< 0.1 µM: all assays above

COC(=O)c1cc2cc(-c3n[nH]c4cc(-c5c(F)c(OC)cc(OC)c5F)ncc34)ccc2o1 [Example 92, Methyl 5-[6-(2,6-difluoro-3,5-dimethoxyphenyl)-1H-pyrazolo[4,3-c]pyridin-3-yl]-1-benzofuran-2-carboxylate]
< 0.1 µM: all assays above

COc1cc(OC)c(F)c(-c2ncc3c(-c4ccc5ncccc5c4)n[nH]c3n2)c1F [Example 94, 6-[6-(2,6-Difluoro-3,5-dimethoxyphenyl)-1H-pyrazolo[3,4-d]pyrimidin-3-yl]quinoline]
< 0.1 µM: all assays above

COc1cc(OC)c(Cl)c(-c2ncc3c(-c4ccc5c(c4)CCC(C(=O)N(C)C)O5)n[nH]c3n2)c1Cl (stereo not drawn) [Example 2, 6-[6-(2,6-Dichloro-3,5-dimethoxyphenyl)-1H-pyrazolo[3,4-d]pyrimidin-3-yl]-N,N-dimethylchromane-2-carboxamide]
< 0.1 µM: all assays above

CCN1Cc2cc(-c3n[nH]c4nc(-c5c(Cl)c(OC)cc(OC)c5Cl)ncc34)cnc2C1=O [Example 77, 3-[6-(2,6-Dichloro-3,5-dimethoxyphenyl)-1H-pyrazolo[3,4-d]pyrimidin-3-yl]-6-ethyl-5,6-dihydro-7H-pyrrolo[3,4-b]pyridin-7-one]
< 0.1 µM: all assays above

COc1cc(OC)c(F)c(-c2cc3[nH]nc(-c4ccc5c(c4)CC(C(=O)N(C)C)O5)c3cn2)c1F (single isomer, unassigned) [Example 84, 5-[6-(2,6-Difluoro-3,5-dimethoxyphenyl)-1H-pyrazolo[4,3-c]pyridin-3-yl]-N,N-dimethyl-2,3-dihydro-1-benzofuran-2-carboxamide]
< 0.1 µM: all assays above

COc1cc(OC)c(F)c(-c2ncc3c(-c4ccnc(N5CCN(C)CC5)c4)n[nH]c3n2)c1F [Example 19, 6-(2,6-Difluoro-3,5-dimethoxyphenyl)-3-[2-(4-methylpiperazin-1-yl)pyridin-4-yl]-1H-pyrazolo[3,4-d]pyrimidine]
< 0.1 µM: all assays above

COc1cc(OC)c(Cl)c(-c2cnc3c(-c4cnn(C)c4)n[nH]c3c2)c1Cl [Example 70, 6-(2,6-dichloro-3,5-dimethoxyphenyl)-3-(1-methyl-1H-pyrazol-4-yl)-1H-pyrazolo[4,3-b]pyridine]
< 0.1 µM: all assays above

CCN1Cc2cc(-c3n[nH]c4cc(-c5c(F)c(OC)cc(OC)c5F)ncc34)ccc2C1=O [Example 52, 5-[6-(2,6-Difluoro-3,5-dimethoxyphenyl)-1H-pyrazolo[4,3-c]pyridin-3-yl]-2-ethylisoindolin-1-one]
< 0.1 µM: all assays above
